Laboratory results taken from US20150315218A1, “SALTS OF PRODRUGS OF PIPERAZINE AND SUBSTITUTED PIPERIDINE ANTIVIRAL AGENTS” (Bristol-Myers Squibb Company, priority 2004, published 2015).
Read-outs that look alike come from different tables or passages of the source.

Columns and labels:
[1] = IV and PO pharmacokinetic studies of prodrug salts (Iab, Ibb, Icb) in the monkey, with historical parent data; type: in vivo, cynomolgus monkeys; conditions: monkey; for Tmax: read-out: Tmax (hr), PO
How it was run: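 Crossover IV/PO studies in three male cynomolgus monkeys per prodrug, two-week washout. Iab given as 5-min femoral-vein infusion at 1.3 mg/kg (free acid; 1.1 mg/kg IVa equivalent) and by gavage to fasted animals at 7.1 mg/kg (5.6 mg/kg IVa equivalent); serial blood sampling to 24 h.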

[2] = Single-dose toxicokinetic and tolerability study of prodrugs in dogs; type: in vivo, dog; conditions: for half-life: read-out: T½ (converted)
How it was run: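 Female dogs (two/group) received prodrug Iab orally once daily at 24, 90 or 240 mg/kg (free acid) as aqueous solution or dry-filled capsules, one-week washouts between doses. Ibb and Icb given to one dog/sex/group as capsules, then aqueous 25 mg/kg or capsules 46 or 125 mg/kg BID. Clinical signs, body weight, food intake and plasma toxicokinetics monitored.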

[3] = Single-dose oral toxicokinetic study of prodrugs in rats; type: in vivo, rat; conditions: CD, rat, plasma; for concentration at 24 h / half-life / Cmax: analyte = label; for concentration at 24 h: read-out: C24 h; for half-life: read-out: T½ (converted); for AUC: read-out: AUC
How it was run: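 Male rats, three per group, received a single oral gavage dose of prodrug salt dissolved in water. Doses were 16, 72 or 267 mg/kg (Iab), 19, 64 or 236 mg/kg (Ibb), and 5, 25 or 200 mg/kg (Icb), all as free acid. Plasma toxicokinetics of prodrug and parent IVa were followed in individual animals.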

[4] = IVa, Iab 24 mg/kg Solution, Dogs #1201, #1202
[5] = IVa, Iab 90 mg/kg Solution, Dogs #3201, #3202
[6] = Table 14: 90 mg/kg, Dogs #1201, #1202, 90 mg/kg
[7] = Table 14: 240 mg/kg, Dogs #2201, #2202, 240 mg/kg
[8] = female, dog, plasma, po, 24 mg/kg, IVa, Iab 24 mg/kg Dry-filled capsule, Dogs #4201, #4202
[9] = female, dog, plasma, po, 24 mg/kg, IVa, Iab 24 mg/kg Solution, Dogs #1201, #1202
[10] = female, dog, plasma, po, 90 mg/kg, IVa, Iab 90 mg/kg Solution, Dogs #3201, #3202
[11] = female, dog, plasma, po, 90 mg/kg, Table 14: 90 mg/kg, Dogs #1201, #1202
[12] = female, dog, plasma, po, 240 mg/kg, Table 14: 240 mg/kg, Dogs #2201, #2202

## COc1ncc(OC)c2c(C(=O)C(=O)N3CCN(C(=O)c4ccccc4)CC3)c[nH]c12 [IVa, N-(benzoyl)-N′-[(4,7-dimethoxy-6-azaindol-3-yl)-oxoacetyl]piperazine]
[1]; cynomolgus monkey, plasma, historical parent, IV 1 mg/kg, read-out: AUCtot (μM · hr), IV
  AUC: 9.2 ± 0.53 µM·h
[1]; cynomolgus monkey, plasma, historical parent, IV 1 mg/kg, read-out: CLtot (mL/min/kg), IV
  clearance: 4.3 ± 0.26 mL/min/kg
[1]; cynomolgus monkey, plasma, historical parent, IV 1 mg/kg, read-out: MRT (hr), IV
  MRT: 2.4 ± 0.15 h
[1]; cynomolgus monkey, plasma, historical parent, IV 1 mg/kg, read-out: Vdss (L/kg), IV
  Vd: 0.63 ± 0.39 L/kg
[1]; cynomolgus monkey, plasma, historical parent, IV 1 mg/kg, read-out: t1/2 (hr), IV (converted)
  half-life: 4.7 ± 0.31 h
[1]; cynomolgus monkey, plasma, historical parent, PO 5 mg/kg, read-out: AUCtot (μM · hr), PO
  AUC: 27 ± 2.9 µM·h
[1]; cynomolgus monkey, plasma, historical parent, PO 5 mg/kg, read-out: Bioavailability (%)
  bioavailability: 60%
[1]; cynomolgus monkey, plasma, historical parent, PO 5 mg/kg, read-out: C-24 hr (μM), PO
  concentration at 24 hr: 0.074 ± 0.032 µM
[1]; cynomolgus monkey, plasma, historical parent, PO 5 mg/kg, read-out: Cmax (μM), PO
  Cmax: 5.8 ± 1.2 µM
[1]; cynomolgus monkey, plasma, historical parent, PO 5 mg/kg
  Tmax: 2.7 h
[1]; cynomolgus monkey, plasma, historical parent, PO 5 mg/kg, read-out: t1/2 (hr), PO (converted)
  half-life: 4.2 ± 0.64 h
[1]; male, cynomolgus monkey, plasma, after IV prodrug (~1.1 mg/kg parent equivalent), analyte = label, read-out: AUCtot (μM · hr), IV
  AUC: 7.1 ± 1 µM·h
[1]; male, cynomolgus monkey, plasma, after IV prodrug, analyte = label, read-out: t1/2 (hr), IV (converted)
  half-life: 4.8 ± 1.9 h
[1]; male, cynomolgus monkey, plasma, oral prodrug, read-out: Bioavailability (%) of parent from prodrug
  bioavailability: 66%
[1]; male, cynomolgus monkey, plasma, parent after oral prodrug (~4-6 mg/kg parent equivalent)
  Tmax: 0.83 h
[1]; male, cynomolgus monkey, plasma, parent after oral prodrug, read-out: t1/2 (hr), PO (converted)
  half-life: 4.8 ± 1.3 h
[1]
  IV AUC Ratio of parent (formed from prodrug vs historical parent study): 0.70
[1]; oral prodrug vs historical parent
  PO AUC Ratio of parent: 1.1
[2]; IVa in female dogs, Iab 24 mg/kg (19 IVa equiv.), Dry-filled capsule, Dogs #4201, #4202
  Cmax: 85.6 µM
[2]; IVa in female dogs, Iab 24 mg/kg (19 IVa equiv.), Solution, Dogs #1201, #1202
  Cmax: 66.5 µM
[2]; IVa in female dogs, Iab 90 mg/kg (71 IVa equiv.), Solution, Dogs #3201, #3202
  Cmax: 125 µM
[2]; IVa, Iab 24 mg/kg Dry-filled capsule, Dogs #4201, #4202
  AUC0-∞: 514 µM·h
[2]; IVa, Iab 24 mg/kg Dry-filled capsule, Dogs #4201, #4202, read-out: C24h
  concentration at 24 h: 0.87 µM
[2]; [4]
  AUC0-∞: 330 µM·h
  T½: 3.1 h
[2]; IVa, Iab 24 mg/kg Solution, Dogs #1201, #1202, read-out: C24h
  concentration at 24 h: 0.33 µM
[2]; [5]
  AUC0-∞: 838 µM·h
  T½: 3.9 h
[2]; IVa, Iab 90 mg/kg Solution, Dogs #3201, #3202, read-out: C24h
  concentration at 24 h: 2.2 µM
[2]; [6]
  AUC0-∞: 960 µM·h
  T½: 2.9 h
[2]; Table 14: 240 mg/kg (190 IVa equiv.), Formulation Solution, Dogs #2201, #2202, 240 mg/kg
  Cmax: 189 µM
[2]; [7]
  AUC0-∞: 1584 µM·h
  T½: 4.5 h
[2]; Table 14: 180 (90 BID) mg/kg (142 IVa equiv.), Dry-filled capsule, Dogs #3201, #3202
  Cmax: 248 µM
[2]; Table 14: 180 (90 BID) mg/kg, Dogs #3201 (AUC from zero to 24 h), #3202
  AUC0-∞: 2485 µM·h
[2]; Table 14: 180 (90 BID) mg/kg, Dogs #3201, #3202, read-out: C24h
  concentration at 24 h: 50 µM
[2]; Table 14: IVa in female dogs, 90 mg/kg (71 IVa equiv.), Formulation Solution, Dogs #1201, #1202, 90 mg/kg
  Cmax: 152 µM
[2]; dogs, once daily (QD) dosing of prodrug
  time post-dose at which mean Cmax of parent was achieved: 1 to 2 h
[2]; female, dog, plasma, oral, 24 mg/kg, IVa, Iab 24 mg/kg Dry-filled capsule, Dogs #4201, #4202, read-out: C24 h
  concentration at 24 h: 1.4 µM
[2]; female, dog, plasma, oral, 24 mg/kg, IVa, Iab 24 mg/kg Solution, Dogs #1201, #1202, read-out: C24 h
  concentration at 24 h: 0.61 µM
[2]; female, dog, plasma, oral, 90 mg/kg, IVa, Iab 90 mg/kg Solution, Dogs #3201, #3202, read-out: C24 h
  concentration at 24 h: 3.2 µM
[2]; female, dog, plasma, oral, Table 14: 180 (90 BID) mg/kg, Dogs #3201, #3202, read-out: C24 h
  concentration at 24 h: 34 µM
[2]; female, dog, plasma, po, 24 mg/kg, IVa in female dogs, Iab 24 mg/kg (19 IVa equiv.), Dry-filled capsule, Dogs #4201, #4202
  Cmax: 79.7 µM
[2]; female, dog, plasma, po, 24 mg/kg, IVa in female dogs, Iab 24 mg/kg (19 IVa equiv.), Solution, Dogs #1201, #1202
  Cmax: 72.3 µM
[2]; [8]
  AUC(0-inf): 486 µM·h
  half-life: 4.2 h
[2]; [9]
  AUC(0-inf): 465 µM·h
  half-life: 3.2 h
[2]; female, dog, plasma, po, 90 mg/kg, IVa in female dogs, Iab 90 mg/kg (71 IVa equiv.), Solution, Dogs #3201, #3202
  Cmax: 124 µM
[2]; [10]
  AUC(0-inf): 844 µM·h
  half-life: 4.4 h
[2]; [11]
  AUC(0-inf): 1740 µM·h
  half-life: 3.6 h
[2]; female, dog, plasma, po, 90 mg/kg, Table 14: IVa in female dogs, 90 mg/kg (71 IVa equiv.), Formulation Solution, Dogs #1201, #1202
  Cmax: 214 µM
[2]; female, dog, plasma, po, 240 mg/kg, Table 14: 240 mg/kg (190 IVa equiv.), Formulation Solution, Dogs #2201, #2202
  Cmax: 172 µM
[2]; [12]
  AUC(0-inf): 1190 µM·h
  half-life: 3.7 h
[2]; female, dog, plasma, po, Table 14: 180 (90 BID) mg/kg (142 IVa equiv.), Dry-filled capsule, Dogs #3201, #3202
  Cmax: 311 µM
[2]; female, dog, plasma, po, Table 14: 180 (90 BID) mg/kg, Dogs #3201 (AUC from zero to 24 h), #3202
  AUC(0-inf): 3300 µM·h
[3]; male rats, Iab 16 mg/kg PO
  concentration at 24 h: 0.09 µM
  half-life: 3.2 h
[3]; male rats, Iab 72 mg/kg PO
  concentration at 24 h: 0.027 µM
  half-life: 2.3 h
[3]; male rats, Iab 267 mg/kg PO, AUC from zero to ∞
  AUC: 1160 µM·h
[3]; male rats, Iab 267 mg/kg PO
  concentration at 24 h: 1.9 µM
  half-life: 3.4 h
[3]; male rats, single oral dose Iab 16 mg/kg (13 mg/kg IVa molar equiv.), water
  Cmax: 26 µM
[3]; male rats, single oral dose Iab 72 mg/kg (57 IVa equiv.)
  Cmax: 104 µM
[3]; male rats, single oral dose Iab 267 mg/kg (211 IVa equiv.)
  Cmax: 214 µM
[3]; male, po, 16 mg/kg
  AUC: 67 µM·h
[3]; male, po, 72 mg/kg
  AUC: 261 µM·h
